{"source": "ChEMBL document CHEMBL3885861", "about": "“Open TG-GATES”", "organism": "Rattus norvegicus", "assay": "Open TG-GATES - Regimen: Single", "type": "toxicity, organism-based, Sprague-Dawley", "set-up": "regimen Single, gender Male, age 6 weeks", "details": "in vivo, po, route gavage; for Bas / Eos / Fbg / Lym / Mono / RBC / Ret / WBC: tissue Blood; for KIDNEY_L / KIDNEY_R / KIDNEY_TOTAL: tissue Kidney", "key": {"[1]": {"details": "20 mg/kg, 3 h, tissue Plasma, dose level Low"}, "[2]": {"details": "20 mg/kg, 6 h, tissue Plasma, dose level Low"}, "[3]": {"details": "20 mg/kg, 9 h, tissue Plasma, dose level Low"}, "[4]": {"details": "20 mg/kg, 24 h, tissue Plasma, dose level Low"}}}
{"smiles": "C=C[C@H]1C[N@@]2CC[C@H]1C[C@@H]2[C@@H](O)c1ccnc2ccc(OC)cc12", "note": "[QUINIDINE]", "values": [{"measurement": "gamma-GTP", "setting": "0 mg/kg, 24 h, tissue Plasma, dose level Control", "value": 1.6, "unit": "IU/L"}, {"measurement": "TERMINAL_BW", "setting": "20 mg/kg, 3 h, dose level Low", "value": 218.9, "unit": "g"}, {"measurement": "Bas", "setting": "20 mg/kg, 3 h, dose level Low", "value": 0, "unit": "%"}, {"measurement": "Eos", "setting": "20 mg/kg, 3 h, dose level Low", "value": 0.2, "unit": "%"}, {"measurement": "Fbg", "setting": "20 mg/kg, 3 h, dose level Low", "value": 293.2, "unit": "mg/dL"}, {"measurement": "Lym", "setting": "20 mg/kg, 3 h, dose level Low", "value": 81, "unit": "%"}, {"measurement": "Mono", "setting": "20 mg/kg, 3 h, dose level Low", "value": 2, "unit": "%"}, {"measurement": "RBC", "setting": "20 mg/kg, 3 h, dose level Low", "value": 600.6, "unit": "x10_4/ul"}, {"measurement": "Ret", "setting": "20 mg/kg, 3 h, dose level Low", "value": 7.5, "unit": "%"}, {"measurement": "WBC", "setting": "20 mg/kg, 3 h, dose level Low", "value": 73.2, "unit": "x10_2/uL"}, {"measurement": "KIDNEY_L", "setting": "20 mg/kg, 3 h, dose level Low", "value": 1, "unit": "g"}, {"measurement": "KIDNEY_R", "setting": "20 mg/kg, 3 h, dose level Low", "value": 1, "unit": "g"}, {"measurement": "KIDNEY_TOTAL", "setting": "20 mg/kg, 3 h, dose level Low", "value": 2, "unit": "g"}, {"measurement": "ALP", "setting": "[1]", "value": 1446.4, "unit": "IU/L"}, {"measurement": "CRE", "setting": "[1]", "value": 0.2, "unit": "mg/dL"}, {"measurement": "DBIL", "setting": "[1]", "value": 0, "unit": "mg/dL"}, {"measurement": "GLC", "setting": "[1]", "value": 178.4, "unit": "mg/dL"}, {"measurement": "IP", "setting": "[1]", "value": 8.7, "unit": "mg/dL"}, {"measurement": "K", "setting": "[1]", "value": 3.7, "unit": "meq/L"}, {"measurement": "Na", "setting": "[1]", "value": 142, "unit": "meq/L"}, {"measurement": "PL", "setting": "[1]", "value": 145, "unit": "mg/dL"}, {"measurement": "RALB", "setting": "[1]", "value": 3, "unit": "g/dL"}, {"measurement": "TBIL", "setting": "[1]", "value": 0.022, "unit": "mg/dL"}, {"measurement": "TG", "setting": "[1]", "value": 68.2, "unit": "mg/dL"}, {"measurement": "TP", "setting": "[1]", "value": 5.4, "unit": "g/dL"}, {"measurement": "gamma-GTP", "setting": "[1]", "value": 1.8, "unit": "IU/L"}, {"measurement": "TERMINAL_BW", "setting": "20 mg/kg, 6 h, dose level Low", "value": 214.6, "unit": "g"}, {"measurement": "Bas", "setting": "20 mg/kg, 6 h, dose level Low", "value": 0, "unit": "%"}, {"measurement": "Eos", "setting": "20 mg/kg, 6 h, dose level Low", "value": 0.8, "unit": "%"}, {"measurement": "Fbg", "setting": "20 mg/kg, 6 h, dose level Low", "value": 294.2, "unit": "mg/dL"}, {"measurement": "Lym", "setting": "20 mg/kg, 6 h, dose level Low", "value": 78, "unit": "%"}, {"measurement": "Mono", "setting": "20 mg/kg, 6 h, dose level Low", "value": 2.6, "unit": "%"}, {"measurement": "RBC", "setting": "20 mg/kg, 6 h, dose level Low", "value": 617.4, "unit": "x10_4/ul"}, {"measurement": "Ret", "setting": "20 mg/kg, 6 h, dose level Low", "value": 7.3, "unit": "%"}, {"measurement": "WBC", "setting": "20 mg/kg, 6 h, dose level Low", "value": 80, "unit": "x10_2/uL"}, {"measurement": "KIDNEY_L", "setting": "20 mg/kg, 6 h, dose level Low", "value": 0.9, "unit": "g"}, {"measurement": "KIDNEY_R", "setting": "20 mg/kg, 6 h, dose level Low", "value": 1, "unit": "g"}, {"measurement": "KIDNEY_TOTAL", "setting": "20 mg/kg, 6 h, dose level Low", "value": 1.9, "unit": "g"}, {"measurement": "ALP", "setting": "[2]", "value": 1616.2, "unit": "IU/L"}, {"measurement": "CRE", "setting": "[2]", "value": 0.2, "unit": "mg/dL"}, {"measurement": "DBIL", "setting": "[2]", "value": 0.004, "unit": "mg/dL"}, {"measurement": "IP", "setting": "[2]", "value": 9.4, "unit": "mg/dL"}, {"measurement": "K", "setting": "[2]", "value": 4, "unit": "meq/L"}, {"measurement": "Na", "setting": "[2]", "value": 142.8, "unit": "meq/L"}, {"measurement": "PL", "setting": "[2]", "value": 140.6, "unit": "mg/dL"}, {"measurement": "RALB", "setting": "[2]", "value": 3, "unit": "g/dL"}, {"measurement": "TBIL", "setting": "[2]", "value": 0.034, "unit": "mg/dL"}, {"measurement": "TG", "setting": "[2]", "value": 55.6, "unit": "mg/dL"}, {"measurement": "TP", "setting": "[2]", "value": 5.4, "unit": "g/dL"}, {"measurement": "gamma-GTP", "setting": "[2]", "value": 1.2, "unit": "IU/L"}, {"measurement": "TERMINAL_BW", "setting": "20 mg/kg, 9 h, dose level Low", "value": 213.3, "unit": "g"}, {"measurement": "Bas", "setting": "20 mg/kg, 9 h, dose level Low", "value": 0, "unit": "%"}, {"measurement": "Eos", "setting": "20 mg/kg, 9 h, dose level Low", "value": 0.8, "unit": "%"}, {"measurement": "Fbg", "setting": "20 mg/kg, 9 h, dose level Low", "value": 302.6, "unit": "mg/dL"}, {"measurement": "Lym", "setting": "20 mg/kg, 9 h, dose level Low", "value": 77.2, "unit": "%"}, {"measurement": "Mono", "setting": "20 mg/kg, 9 h, dose level Low", "value": 2.2, "unit": "%"}, {"measurement": "RBC", "setting": "20 mg/kg, 9 h, dose level Low", "value": 642, "unit": "x10_4/ul"}, {"measurement": "Ret", "setting": "20 mg/kg, 9 h, dose level Low", "value": 6.9, "unit": "%"}, {"measurement": "WBC", "setting": "20 mg/kg, 9 h, dose level Low", "value": 88, "unit": "x10_2/uL"}, {"measurement": "KIDNEY_L", "setting": "20 mg/kg, 9 h, dose level Low", "value": 1, "unit": "g"}, {"measurement": "KIDNEY_R", "setting": "20 mg/kg, 9 h, dose level Low", "value": 1, "unit": "g"}, {"measurement": "KIDNEY_TOTAL", "setting": "20 mg/kg, 9 h, dose level Low", "value": 2, "unit": "g"}, {"measurement": "ALP", "setting": "[3]", "value": 1487, "unit": "IU/L"}, {"measurement": "CRE", "setting": "[3]", "value": 0.2, "unit": "mg/dL"}, {"measurement": "DBIL", "setting": "[3]", "value": 0, "unit": "mg/dL"}, {"measurement": "IP", "setting": "[3]", "value": 9.3, "unit": "mg/dL"}, {"measurement": "K", "setting": "[3]", "value": 4.4, "unit": "meq/L"}, {"measurement": "LDH", "setting": "[3]", "value": 133.8, "unit": "IU/L"}, {"measurement": "Na", "setting": "[3]", "value": 143.8, "unit": "meq/L"}, {"measurement": "PL", "setting": "[3]", "value": 136.8, "unit": "mg/dL"}, {"measurement": "RALB", "setting": "[3]", "value": 3, "unit": "g/dL"}, {"measurement": "TBIL", "setting": "[3]", "value": 0.02, "unit": "mg/dL"}, {"measurement": "TG", "setting": "[3]", "value": 83.4, "unit": "mg/dL"}, {"measurement": "TP", "setting": "[3]", "value": 5.5, "unit": "g/dL"}, {"measurement": "gamma-GTP", "setting": "[3]", "value": 1.6, "unit": "IU/L"}, {"measurement": "TERMINAL_BW", "setting": "20 mg/kg, 24 h, dose level Low", "value": 228.7, "unit": "g"}, {"measurement": "Bas", "setting": "20 mg/kg, 24 h, dose level Low", "value": 0, "unit": "%"}, {"measurement": "Eos", "setting": "20 mg/kg, 24 h, dose level Low", "value": 1, "unit": "%"}, {"measurement": "Fbg", "setting": "20 mg/kg, 24 h, dose level Low", "value": 321.4, "unit": "mg/dL"}, {"measurement": "Lym", "setting": "20 mg/kg, 24 h, dose level Low", "value": 82.4, "unit": "%"}, {"measurement": "Mono", "setting": "20 mg/kg, 24 h, dose level Low", "value": 2.4, "unit": "%"}, {"measurement": "RBC", "setting": "20 mg/kg, 24 h, dose level Low", "value": 632.8, "unit": "x10_4/ul"}, {"measurement": "Ret", "setting": "20 mg/kg, 24 h, dose level Low", "value": 6.7, "unit": "%"}, {"measurement": "WBC", "setting": "20 mg/kg, 24 h, dose level Low", "value": 97.6, "unit": "x10_2/uL"}, {"measurement": "KIDNEY_L", "setting": "20 mg/kg, 24 h, dose level Low", "value": 1, "unit": "g"}, {"measurement": "KIDNEY_R", "setting": "20 mg/kg, 24 h, dose level Low", "value": 1, "unit": "g"}, {"measurement": "KIDNEY_TOTAL", "setting": "20 mg/kg, 24 h, dose level Low", "value": 1.9, "unit": "g"}, {"measurement": "ALP", "setting": "[4]", "value": 1563, "unit": "IU/L"}, {"measurement": "CRE", "setting": "[4]", "value": 0.1, "unit": "mg/dL"}, {"measurement": "DBIL", "setting": "[4]", "value": 0.002, "unit": "mg/dL"}, {"measurement": "IP", "setting": "[4]", "value": 7.7, "unit": "mg/dL"}, {"measurement": "K", "setting": "[4]", "value": 4, "unit": "meq/L"}, {"measurement": "Na", "setting": "[4]", "value": 140.4, "unit": "meq/L"}, {"measurement": "RALB", "setting": "[4]", "value": 3.1, "unit": "g/dL"}, {"measurement": "TBIL", "setting": "[4]", "value": 0, "unit": "mg/dL"}, {"measurement": "TG", "setting": "[4]", "value": 147.8, "unit": "mg/dL"}, {"measurement": "TP", "setting": "[4]", "value": 5.8, "unit": "g/dL"}, {"measurement": "gamma-GTP", "setting": "[4]", "value": 1.8, "unit": "IU/L"}, {"measurement": "TERMINAL_BW", "setting": "60 mg/kg, 3 h, dose level Middle", "value": 222.4, "unit": "g"}]}
